Results: patent publication US6187781A, “4-Tetrahydropyridylpyrimidine derivatives” (Taisho Pharmaceutical Co., Ltd., priority 1997, dated 2001)
Where a name gives a salt, the structure may show the parent alone.

target: T1, CRF receptor (Rattus norvegicus, UniProt P35353); assay: CRF receptor Binding Assay ([125I]-CRF, rat frontal cortical membranes); conditions: 125I-CRF 0.2 nM; rat frontal cortical membranes 0.3 mg-protein/ml; 25° C., 2 hours; nonspecific binding with 1 μM CRF; read-out: IC50 (concentration of the test compound which 50% inhibits the 125I-CRF binding)
T1 sequence (P35353 24-415): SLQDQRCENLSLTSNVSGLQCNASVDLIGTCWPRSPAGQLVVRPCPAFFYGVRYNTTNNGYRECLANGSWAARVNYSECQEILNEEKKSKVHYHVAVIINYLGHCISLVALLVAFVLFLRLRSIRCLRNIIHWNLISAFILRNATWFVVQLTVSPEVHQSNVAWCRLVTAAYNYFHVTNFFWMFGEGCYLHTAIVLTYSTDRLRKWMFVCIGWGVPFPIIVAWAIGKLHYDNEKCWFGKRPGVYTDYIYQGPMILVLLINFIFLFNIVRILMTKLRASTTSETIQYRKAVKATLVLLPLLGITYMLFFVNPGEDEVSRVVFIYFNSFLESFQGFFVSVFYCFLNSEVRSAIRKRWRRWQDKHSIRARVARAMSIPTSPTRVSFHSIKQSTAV

Row | Structure (SMILES) | IC50 [nM]
1 | C#CCN(c1nc(C)cc(N2CC=C(c3cccc(F)c3)CC2)n1)c1ccc(C(C)C)cc1Br [Compound 1-03] | 32.2
2 | CCN(c1nc(C)cc(N2CC=C(c3cccc(F)c3)CC2)n1)c1ccc(C(C)C)cc1I [Compound 1-05] | 27.6
3 | CCN(c1nc(C)cc(N2CC=C(c3cccc(F)c3)CC2)n1)c1ccc(N(C)C)cc1Br [Compound 1-12] | 38.5
4 | CCN(c1nc(C)cc(N2CC=C(c3cccc(F)c3)CC2)n1)c1c(C)cc(C)cc1C [Compound 1-14] | 73.9
5 | CCN(c1nc(C)cc(N2CC=C(c3ccc(F)cc3)CC2)n1)c1ccc(C(C)C)cc1Br [Compound 1-15] | 79.3
6 | CCN(c1nc(C)cc(N2CC=C(c3ccc(F)cc3)CC2)n1)c1ccc(N(C)C)cc1Br [Compound 1-17] | 73.9
7 | CCN(c1nc(C)cc(N2CC=C(c3ccc(F)c(F)c3)CC2)n1)c1ccc(C(C)C)cc1SC [Compound 1-21] | 81.1
8 | CCN(c1nc(C)cc(N2CC=C(c3ccc(F)c(F)c3)CC2)n1)c1ccc(N(C)C)cc1Br [Compound 1-22] | 89
9 | CCN(c1nc(C)cc(N2CC=C(c3cc(F)cc(F)c3)CC2)n1)c1ccc(C(C)C)cc1Br [Compound 1-25] | 46.4
10 | C#CCN(c1nc(C)cc(N2CC=C(c3cc(F)cc(F)c3)CC2)n1)c1ccc(C(C)C)cc1SC [Compound 1-27] | 12.6
11 | CCN(c1nc(C)cc(N2CC=C(c3cccc(Cl)c3)CC2)n1)c1ccc(C(C)C)cc1Br [Compound 1-30, 2-[N-(2-bromo-4-isopropylphenyl)-N-ethylamino]-4-[4-(3-chlorophenyl)-1,2,3,6-tetrahydropyridin-1-yl]-6-methylpyrimidine hydrochloride] | 24.8
12 | CCN(c1nc(C)cc(N2CC=C(c3cccc(Cl)c3)CC2)n1)c1ccc(C(C)C)cc1SC [Compound 1-34] | 20.1
13 | C#CCN(c1nc(C)cc(N2CC=C(c3cccc(Cl)c3)CC2)n1)c1ccc(C(C)C)cc1SC [Compound 1-36] | 51.5
14 | C#CCN(c1nc(C)cc(N2CC=C(c3ccc(Cl)cc3)CC2)n1)c1ccc(C(C)C)cc1Br [Compound 1-46] | 31.3
15 | CCN(c1nc(C)cc(N2CC=C(c3ccc(Cl)cc3)CC2)n1)c1ccc(C(C)C)cc1SC [Compound 1-51] | 21.5
16 | CCN(c1nc(C)cc(N2CC=C(c3ccc(Cl)cc3)CC2)n1)c1ccc(Br)cc1Br [Compound 1-57] | 65.8
17 | CCN(c1nc(C)cc(N2CC=C(c3ccc(Cl)c(Cl)c3)CC2)n1)c1ccc(C(C)C)cc1Br [Compound 1-61] | 67.3
18 | CCN(c1nc(C)cc(N2CC=C(c3ccc(Cl)c(Cl)c3)CC2)n1)c1ccc(C(C)C)cc1SC [Compound 1-62] | 32
19 | CCN(c1nc(C)cc(N2CC=C(c3cccc(C(F)(F)F)c3)CC2)n1)c1ccc(C(C)C)cc1Br [Compound 1-66] | 46.4
20 | CCN(c1nc(C)cc(N2CC=C(c3cccc(C(F)(F)F)c3)CC2)n1)c1ccc(N(C)C)cc1Br [Compound 1-67] | 61.4
21 | CCN(c1nc(C)cc(N2CC=C(c3cccc(C)c3)CC2)n1)c1ccc(C(C)C)cc1Br [Compound 1-73] | 65.8
22 | CCN(c1nc(C)cc(N2CC=C(c3ccc(C)cc3)CC2)n1)c1ccc(C(C)C)cc1Br [Compound 1-74] | 62.9
23 | CCN(c1nc(C)cc(N2CC=C(c3cccs3)CC2)n1)c1ccc(C(C)C)cc1Br [Compound 1-78, 2-[N-(2-bromo-4-isopropylphenyl)-N-ethylamino]-4-[4-(thiophen-2-yl)-1,2,3,6-tetrahydropyridin-1-yl]-6-methylpyrimidine] | 52.2
24 | CCN(c1nc(C)cc(N2CCC=C(c3ccc(F)cc3)C2)n1)c1ccc(C(C)C)cc1Br [Compound 2-04] | 82.3
25 | C#CCN(c1nc(C)cc(N2CCC=C(c3ccc(F)cc3)C2)n1)c1ccc(C(C)C)cc1SC [Compound 2-07] | 20.2
26 | CCN(c1nc(C)cc(N2CCC=C(c3cccc(Cl)c3)C2)n1)c1ccc(C(C)C)cc1SC [Compound 2-09] | 97.7
27 | CCN(c1nc(C)cc(N2CCC=C(c3cc(F)cc(F)c3)C2)n1)c1ccc(C(C)C)cc1SC [Compound 2-13] | 82.3
28 | CCN(c1nc(C)cc(N2CCC=C(c3cccc(C)c3)C2)n1)c1ccc(C(C)C)cc1SC [Compound 2-18] | 70.4
29 | CCN(c1nc(C)cc(N2CCC=C(c3ccc(C)cc3)C2)n1)c1ccc(C(C)C)cc1SC [Compound 2-19] | 70.4

Next, values leading:

Row | IC50 [nM] | Structure (SMILES)
30 | 66.1 | CCN(c1nc(C)cc(N2CC=C(c3ccccc3)CC2)n1)c1ccc(C(C)C)cc1Br [Compound 1-01, 2-[N-(2-bromo-4-isopropylphenyl)-N-ethylamino]-4-(4-phenyl-1,2,3,6-tetrahydropyridin-1-yl)-6-methylpyrimidine hydrochloride]
31 | 22.1 | CCN(c1nc(C)cc(N2CC=C(c3cccc(F)c3)CC2)n1)c1ccc(C(C)C)cc1Br [Compound 1-02]
32 | 10.5 | CCN(c1nc(C)cc(N2CC=C(c3cccc(F)c3)CC2)n1)c1ccc(C(C)C)cc1SC [Compound 1-06]
33 | 89 | C#CCN(c1nc(C)cc(N2CC=C(c3cccc(F)c3)CC2)n1)c1ccc(C(C)C)cc1SC [Compound 1-08]
34 | 81.1 | CCN(c1nc(C)cc(N2CC=C(c3ccc(F)cc3)CC2)n1)c1ccc(C(C)C)cc1SC [Compound 1-16]
35 | 49.8 | CCN(c1nc(C)cc(N2CC=C(c3ccc(F)c(F)c3)CC2)n1)c1ccc(C(C)C)cc1Br [Compound 1-20]
36 | 35.1 | CCN(c1nc(C)cc(N2CC=C(c3cc(F)cc(F)c3)CC2)n1)c1ccc(C(C)C)cc1SC [Compound 1-26]
37 | 96.2 | C#CCN(c1nc(C)cc(N2CC=C(c3cccc(Cl)c3)CC2)n1)c1ccc(C(C)C)cc1Br [Compound 1-31]
38 | 55.9 | CCN(c1nc(C)cc(N2CC=C(c3cccc(Cl)c3)CC2)n1)c1ccc(N(C)C)cc1Br [Compound 1-33]
39 | 38.9 | CCN(c1nc(C)cc(N2CC=C(c3ccc(Cl)cc3)CC2)n1)c1ccc(C(C)C)cc1Br [Compound 1-41]
40 | 65.8 | CCN(c1nc(C)cc(N2CC=C(c3ccc(Cl)cc3)CC2)n1)c1ccc(C2CCCC2)cc1SC [Compound 1-54]
41 | 45.4 | CCN(c1nc(C)cc(N2CC=C(c3ccc(Cl)cc3)CC2)n1)c1ccc(N(C)C)cc1Br [Compound 1-55]
42 | 38.5 | CCN(c1nc(C)cc(N2CC=C(c3cccc(C(F)(F)F)c3)CC2)n1)c1ccc(C(C)C)cc1SC [Compound 1-68]
43 | 55.9 | CCN(c1nc(C)cc(N2CC=C(c3cccc(C(F)(F)F)c3)CC2)n1)c1c(C)cc(C)cc1C [Compound 1-71]
44 | 82.4 | CCN(c1nc(C)cc(N2CC=C(c3ccc(OC)cc3)CC2)n1)c1ccc(C(C)C)cc1Br [Compound 1-77]
45 | 44.5 | CCN(c1nc(C)cc(N2CC=C(c3ccco3)CC2)n1)c1ccc(C(C)C)cc1Br [Compound 1-79, 2-[N-(2-bromo-4-isopropylphenyl)-N-ethylamino]-4-[4-(furan-2-yl)-1,2,3,6-tetrahydropyridin-1-yl]-6-methylpyrimidine]
46 | 89 | CCN(c1nc(C)cc(N2CCC=C(c3ccccc3)C2)n1)c1ccc(C(C)C)cc1Br [Compound 2-01, 2-[N-(2-bromo-4-isopropylphenyl)-N-ethylamino]-4-(5-phenyl-1,2,3,6-tetrahydropyridin-1-yl)-6-methylpyrimidine hydrochloride]
47 | 96.2 | CCN(c1nc(C)cc(N2CCC=C(c3cccc(F)c3)C2)n1)c1ccc(C(C)C)cc1Br [Compound 2-02]
48 | 82.3 | CCN(c1nc(C)cc(N2CCC=C(c3cccc(F)c3)C2)n1)c1ccc(C(C)C)cc1SC [Compound 2-03]
49 | 27.6 | CCN(c1nc(C)cc(N2CCC=C(c3ccc(F)cc3)C2)n1)c1ccc(C(C)C)cc1SC [Compound 2-05]
50 | 96.2 | CCN(c1nc(C)cc(N2CCC=C(c3ccc(F)cc3)C2)n1)c1ccc(N(C)C)cc1Br [Compound 2-06]
51 | 10.8 | CCN(c1nc(C)cc(N2CCC=C(c3ccccc3C)C2)n1)c1ccc(C(C)C)cc1SC [Compound 2-15, 2-[N-(4-isopropyl-2-methylthiophenyl)-N-ethylamino]-4-[5-(2-methylphenyl)-1,2,3,6-tetrahydropyridin-1-yl]-6-methylpyrimidine hydrochloride]
